Assays:
[1] = biological target: HiBiT tagged CK1α (Homo sapiens, UniProt P48729+Q96SW2); experiment: CK1α degradation assay (HiBiT assay); format: cell-based; settings: 20 hours; for Dmax: HT-1080, HT-1080 cells; for Dmax / HiBiT CK1α: Dmax: maximum CK1α degradation; for DC50 / HiBiT CK1α: Dmax: HT-1080 cells; for DC50: concentration at 50% CK1α degradation
Description: (§1) CK1α and GSPT1 Degradation Assay (HiBiT Assay) The following is an example of an assay that can be used to determine the dose-dependent CK1α and GSPT1 degradation activities of test compounds in a human cell line such as HT-1080 ([…]). HT-1080 cells stably overexpressing wild-type CRBN, GSPT1A(1-138)/G575N mutant and HiBiT tagged CK1α or GSPT1 were seeded into 384-well plates (Cat #3764, Corning) pre-spotted with DMSO or test compounds. Increasing concentrations of test compounds (ranging from 3.162×10^-4 μM to 10 μM at a 3.16-fold increment) or DMSO were dispensed into an empty 384-well plate using an Echo Acoustic Liquid Handler (Beckman Coulter). About 10,000 cells in complete DMEM cell culture media were seeded per well. […] Luminescence was then measured with an EnVision plate reader (PerkinElmer) or a PHERAstar plate reader (BMG Labtech). All CK1α or GSPT1 degradation curves were processed using Collaborative Drug Discovery Vault softwares (Burlingame, CA., www.collaborativedrug.com). CK1α or GSPT1 levels in compound-treated wells were normalized to that of DMSO control and expressed as Percent of Control (PoC, y). […]

[2] = biological target: HiBiT tagged GSPT1 (Homo sapiens, UniProt P15170+Q96SW2); experiment: GSPT1 degradation assay (HiBiT assay); format: cell-based; settings: 20 hours, maximum GSPT1 degradation; for Dmax: HT-1080, HT-1080 cells; for HiBiT GSPT1: Dmax: HT-1080 cells
Description: as §1

Sequence of HiBiT tagged CK1α (P48729 whole entry): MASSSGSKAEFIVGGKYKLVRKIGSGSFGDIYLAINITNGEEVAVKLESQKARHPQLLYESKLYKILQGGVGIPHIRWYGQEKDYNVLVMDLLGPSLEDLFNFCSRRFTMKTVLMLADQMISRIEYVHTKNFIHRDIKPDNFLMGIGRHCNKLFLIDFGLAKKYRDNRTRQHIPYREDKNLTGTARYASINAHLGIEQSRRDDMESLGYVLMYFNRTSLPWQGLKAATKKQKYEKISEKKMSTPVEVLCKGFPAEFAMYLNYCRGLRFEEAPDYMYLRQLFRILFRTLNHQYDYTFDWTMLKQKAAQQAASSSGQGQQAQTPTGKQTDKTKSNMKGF
Sequence of HiBiT tagged CK1α (Q96SW2 whole entry): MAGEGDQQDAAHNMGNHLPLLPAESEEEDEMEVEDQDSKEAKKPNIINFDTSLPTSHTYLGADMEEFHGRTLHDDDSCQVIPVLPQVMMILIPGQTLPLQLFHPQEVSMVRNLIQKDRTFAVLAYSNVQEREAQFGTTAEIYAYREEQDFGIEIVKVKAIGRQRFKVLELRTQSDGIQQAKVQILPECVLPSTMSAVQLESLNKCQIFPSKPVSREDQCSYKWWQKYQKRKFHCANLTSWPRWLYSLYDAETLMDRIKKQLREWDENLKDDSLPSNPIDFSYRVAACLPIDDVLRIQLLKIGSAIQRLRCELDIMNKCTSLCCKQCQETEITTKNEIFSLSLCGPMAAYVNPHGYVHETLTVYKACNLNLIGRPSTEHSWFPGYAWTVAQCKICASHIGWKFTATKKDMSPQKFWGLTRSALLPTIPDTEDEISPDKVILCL
Sequence of HiBiT tagged CK1α (Q16531 whole entry partner): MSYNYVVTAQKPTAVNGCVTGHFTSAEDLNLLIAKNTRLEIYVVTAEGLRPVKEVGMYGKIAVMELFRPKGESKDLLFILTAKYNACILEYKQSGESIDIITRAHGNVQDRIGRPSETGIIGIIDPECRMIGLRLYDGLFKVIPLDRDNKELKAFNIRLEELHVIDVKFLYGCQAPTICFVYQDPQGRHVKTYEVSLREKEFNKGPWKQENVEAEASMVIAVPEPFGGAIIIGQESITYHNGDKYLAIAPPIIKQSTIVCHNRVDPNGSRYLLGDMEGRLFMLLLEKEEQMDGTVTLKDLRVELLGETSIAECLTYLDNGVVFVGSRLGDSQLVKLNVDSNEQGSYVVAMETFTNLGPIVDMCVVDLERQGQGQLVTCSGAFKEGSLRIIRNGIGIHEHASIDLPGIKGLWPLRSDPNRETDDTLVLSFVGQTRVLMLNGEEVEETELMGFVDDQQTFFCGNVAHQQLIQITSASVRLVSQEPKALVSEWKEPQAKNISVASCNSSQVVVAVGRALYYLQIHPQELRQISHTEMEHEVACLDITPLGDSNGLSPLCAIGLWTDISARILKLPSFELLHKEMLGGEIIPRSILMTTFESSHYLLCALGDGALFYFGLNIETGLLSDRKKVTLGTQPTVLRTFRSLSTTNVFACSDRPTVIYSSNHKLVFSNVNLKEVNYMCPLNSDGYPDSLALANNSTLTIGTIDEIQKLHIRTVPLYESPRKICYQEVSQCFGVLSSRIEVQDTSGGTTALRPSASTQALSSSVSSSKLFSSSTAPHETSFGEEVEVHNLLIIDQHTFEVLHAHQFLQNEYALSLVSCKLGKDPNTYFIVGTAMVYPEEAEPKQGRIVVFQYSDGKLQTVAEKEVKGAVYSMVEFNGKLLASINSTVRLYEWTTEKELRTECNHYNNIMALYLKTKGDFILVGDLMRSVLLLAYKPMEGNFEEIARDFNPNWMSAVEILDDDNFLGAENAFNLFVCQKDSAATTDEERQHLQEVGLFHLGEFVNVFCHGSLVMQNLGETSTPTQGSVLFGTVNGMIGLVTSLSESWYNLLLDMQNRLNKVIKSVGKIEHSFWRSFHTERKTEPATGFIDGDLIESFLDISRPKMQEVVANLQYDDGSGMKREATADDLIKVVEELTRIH
Sequence of HiBiT tagged GSPT1 (P15170 whole entry): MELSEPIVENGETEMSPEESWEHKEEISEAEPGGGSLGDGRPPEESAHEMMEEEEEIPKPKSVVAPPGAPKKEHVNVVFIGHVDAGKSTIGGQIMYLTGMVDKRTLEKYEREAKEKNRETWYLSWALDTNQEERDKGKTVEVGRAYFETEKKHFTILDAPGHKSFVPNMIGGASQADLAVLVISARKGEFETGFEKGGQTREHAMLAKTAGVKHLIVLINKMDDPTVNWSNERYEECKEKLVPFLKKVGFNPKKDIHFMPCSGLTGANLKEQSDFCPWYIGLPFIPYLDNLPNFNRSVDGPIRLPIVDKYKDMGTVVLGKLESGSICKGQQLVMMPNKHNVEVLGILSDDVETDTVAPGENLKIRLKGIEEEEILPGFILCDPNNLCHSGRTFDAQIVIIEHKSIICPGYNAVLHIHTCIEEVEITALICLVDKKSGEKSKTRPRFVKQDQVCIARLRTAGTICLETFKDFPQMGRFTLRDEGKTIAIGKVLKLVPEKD
Sequence of HiBiT tagged GSPT1 (Q96SW2 whole entry): as the sequence (Q96SW2 whole entry) above
Sequence of HiBiT tagged GSPT1 (Q16531 whole entry partner): as the sequence (Q16531 whole entry partner) above

Compound	Dmax [1]	Dmax [2]	DC50 [1]	HiBiT CK1α: Dmax [1]	HiBiT GSPT1: Dmax [2]
COc1cccc([C@H](NC(=O)c2ccc3c(c2)CN(C2CCC(=O)NC2=O)C3=O)C2CC2)c1 (stereo in doubt) [Compound 31, N-((*R)-cyclopropyl(3-methoxyphenyl)methyl)-2-(2,6-dioxopiperidin-3-yl)-1-oxoisoindoline-5-carboxamide]	48.1%	60%	–	–	–
O=C1CCC(N2Cc3cc(C(=O)N[C@H](c4ncccc4F)C4CCC4)ccc3C2=O)C(=O)N1 (stereo in doubt) [Compound 24, N-((*S)-cyclobutyl(3-fluoropyridin-2-yl)methyl)-2-(2,6-dioxopiperidin-3-yl)-1-oxoisoindoline-5-carboxamide]	–	–	363 nM	63.2%	63.1%
O=C1CCC(N2Cc3cc(C(=O)N[C@H](c4cccc(C(F)(F)F)c4)C4CC4)ccc3C2=O)C(=O)N1 (stereo in doubt) [Compound 34, N-((*S)-cyclopropyl(3-(trifluoromethyl)phenyl)methyl)-2-(2,6-dioxopiperidin-3-yl)-1-oxoisoindoline-5-carboxamide]	59.5%	25.8%	446 nM	–	–
O=C1CC[C@H](N2Cc3cc(C(=O)N[C@H](c4ccc(Cl)cc4F)C4CCC4)ccc3C2=O)C(=O)N1 (racemic) [Compound 57, N-((*S)-(4-chloro-2-fluorophenyl)(cyclobutyl)methyl)-2-((*S)-2,6-dioxopiperidin-3-yl)-1-oxoisoindoline-5-carboxamide]	–	–	128 nM	64.4%	19.1%
O=C1CCC(N2Cc3cc(C(=O)N[C@H](c4ncccc4Cl)C4CCC4)ccc3C2=O)C(=O)N1 (stereo in doubt) [Compound 18, N-((*S)-(3-chloropyridin-2-yl)(cyclobutyl)methyl)-2-(2,6-dioxopiperidin-3-yl)-1-oxoisoindoline-5-carboxamide]	66%	58.5%	137 nM	–	–
O=C1CCC(N2Cc3cc(C(=O)N[C@H](c4ncc(F)cc4Cl)C4CCC4)ccc3C2=O)C(=O)N1 (stereo in doubt) [Compound 81, N-((*S)-(3-chloro-5-fluoropyridin-2-yl)(cyclobutyl)methyl)-2-(2,6-dioxopiperidin-3-yl)-1-oxoisoindoline-5-carboxamide]	62.1%	18.4%	153 nM	–	–
O=C1CCC(N2Cc3cc(C(=O)NC(c4ccc(Cl)cc4F)C4CC4)ccc3C2=O)C(=O)N1 (stereo not shown) [Compound 14, N-((4-chloro-2-fluorophenyl)(cyclopropyl)methyl)-2-(2,6-dioxopiperidin-3-yl)-1-xoisoindoline-5-carboxamide]	67.1%	45.5%	284 nM	–	–
O=C1CCC(N2Cc3cc(C(=O)N[C@H](c4c(F)cccc4F)C4CCC4)ccc3C2=O)C(=O)N1 (stereo in doubt) [Compound 67, N-((*S)-cyclobutyl(2,6-difluorophenyl)methyl)-2-(2,6-dioxopiperidin-3-yl)-1-oxoisoindoline-5-carboxamide]	76.4%	31.7%	40 nM	–	–
O=C1CCC(N2Cc3cc(C(=O)N[C@H](c4ccc(F)cc4)C4CCCC4)ccc3C2=O)C(=O)N1 (mixture of isomers) [Compound 61, N-((*S)-cyclopentyl(4-fluorophenyl)methyl)-2-((R)-2,6-dioxopiperidin-3-yl)-1-oxoisoindoline-5-carboxamide]	49.5%	29.3%	–	–	–
O=C1CC[C@H](N2Cc3cc(C(=O)N[C@H](c4ccc(Cl)cc4F)C4CCC4)ccc3C2=O)C(=O)N1 (racemic) [Compound 55, N-((*S)-(4-chloro-2-fluorophenyl)(cyclobutyl)methyl)-2-((*S)-2,6-dioxopiperidin-3-yl)-1-oxoisoindoline-5-carboxamide]	57.8%	–	948 nM	–	48%
O=C1CCC(N2Cc3cc(C(=O)N[C@H](c4ccc(F)cc4Cl)C4CCC4)ccc3C2=O)C(=O)N1 (stereo in doubt) [Compound 73, N-((*S)-(2-chloro-4-fluorophenyl)(cyclobutyl)methyl)-2-(2,6-dioxopiperidin-3-yl)-1-oxoisoindoline-5-carboxamide]	71.4%	30.4%	73.5 nM	–	–
O=C1CCC(N2Cc3cc(C(=O)N[C@@H](c4cccc(C(F)(F)F)c4)C4CC4)ccc3C2=O)C(=O)N1 (stereo in doubt) [Compound 33, N-((*R)-cyclopropyl(3-(trifluoromethyl)phenyl)methyl)-2-(2,6-dioxopiperidin-3-yl)-1-oxoisoindoline-5-carboxamide]	56.3%	66.3%	1300 nM	–	–
O=C1CCC(N2Cc3cc(C(=O)NC(c4ccc(F)cc4Cl)C4CCC4)ccc3C2=O)C(=O)N1 (single isomer, unassigned) [Compound 53, N-((*S)-(2-chloro-4-fluorophenyl)(cyclobutyl)methyl)-2-((*S)-2,6-dioxopiperidin-3-yl)-1-oxoisoindoline-5-carboxamide]	70.2%	24.2%	118 nM	–	–
O=C1CCC(N2Cc3cc(C(=O)N[C@H](c4ccccc4F)C4CC4)ccc3C2=O)C(=O)N1 (stereo in doubt) [Compound 11, N-((*S)-cyclopropyl(2-fluorophenyl)methyl)-2-(2,6-dioxopiperidin-3-yl)-1-oxoisoindoline-5-carboxamide]	64.7%	23.4%	308 nM	–	–
O=C1CC[C@H](N2Cc3cc(C(=O)N[C@H](c4ccc(F)c(F)c4)C4CCC4)ccc3C2=O)C(=O)N1 (racemic) [Compound 46, N-((*R)-cyclobutyl(3,4-difluorophenyl)methyl)-2-((*S)-2,6-dioxopiperidin-3-yl)-1-oxoisoindoline-5-carboxamide]	54.6%	32.4%	1300 nM	–	–
O=C1CCC(N2Cc3cc(C(=O)NC(c4ccc(F)cc4)C4CCCC4)ccc3C2=O)C(=O)N1 (stereo not shown) [Compound 37, N-(cyclopentyl(4-fluorophenyl)methyl)-2-(2,6-dioxopiperidin-3-yl)-1-oxoisoindoline-5-carboxamide]	70.8%	36.2%	72.7 nM	–	–
O=C1CC[C@H](N2Cc3cc(C(=O)N[C@H](c4ccc(F)cc4)C4CCCC4)ccc3C2=O)C(=O)N1 (racemic) [Compound 60, N-((*R)-cyclopentyl(4-fluorophenyl)methyl)-2-((S)-2,6-dioxopiperidin-3-yl)-1-oxoisoindoline-5-carboxamide]	–	27.4%	< 47.1 nM	49%	–
O=C1CCC(N2Cc3cc(C(=O)N[C@H](c4ccc(Cl)cc4)C4CC4)ccc3C2=O)C(=O)N1 (stereo in doubt) [Compound 3, N—((*S)-(4-chlorophenyl)(cyclopropyl)methyl)-2-(2,6-dioxopiperidin-3-yl)-1-oxoisoindoline-5-carboxamide]	50.6%	73.1%	5190 nM	–	–
N#Cc1ccccc1[C@@H](NC(=O)c1ccc2c(c1)CN(C1CCC(=O)NC1=O)C2=O)C1CC1 (stereo in doubt) [Compound 64, N-((*S)-(2-cyanophenyl)(cyclopropyl)methyl)-2-(2,6-dioxopiperidin-3-yl)-1-oxoisoindoline-5-carboxamide]	66.7%	27.9%	162 nM	–	–
O=C1CC[C@@H](N2Cc3cc(C(=O)N[C@H](c4ccc(Cl)cc4F)C4CCC4)ccc3C2=O)C(=O)N1 (racemic) [Compound 56, N-((*S)-(4-chloro-2-fluorophenyl)(cyclobutyl)methyl)-2-((*R)-2,6-dioxopiperidin-3-yl)-1-oxoisoindoline-5-carboxamide]	–	–	93.7 nM	63.6%	15.3%
O=C1CC[C@@H](N2Cc3cc(C(=O)N[C@H](c4ccc(F)cc4Cl)C4CCC4)ccc3C2=O)C(=O)N1 (racemic) [Compound 52, N-((*S)-(2-chloro-4-fluorophenyl)(cyclobutyl)methyl)-2-((*R)-2,6-dioxopiperidin-3-yl)-1-oxoisoindoline-5-carboxamide]	–	–	95 nM	73.9%	28.5%
O=C1CCC(N2Cc3cc(C(=O)N[C@@H](c4cccc(F)c4)C4CC4)ccc3C2=O)C(=O)N1 (stereo in doubt) [Compound 25, N-((*R)-cyclopropyl(3-fluorophenyl)methyl)-2-(2,6-dioxopiperidin-3-yl)-1-oxoisoindoline-5-carboxamide]	54.5%	48.4%	1580 nM	–	–
O=C1CC[C@H](N2Cc3cc(C(=O)N[C@H](c4ccc(F)cc4)C4CCCC4)ccc3C2=O)C(=O)N1 (racemic) [Compound 63, N-((*S)-cyclopentyl(4-fluorophenyl)methyl)-2-((S)-2,6-dioxopiperidin-3-yl)-1-oxoisoindoline-5-carboxamide]	–	–	53.5 nM	72.2%	29%
